ChEMBL document CHEMBL1153404, “Design and structural analysis of novel pharmacophores for potent and selective peroxisome proliferator-activated receptor gamma agonists” (J Med Chem, 2009)

Tests used:
[1] = target: T1, Peroxisome proliferator-activated receptor alpha (Homo sapiens, UniProt Q07869); assay: Agonist activity at human PPARalpha receptor by cell based transactivation assay; assay type: functional
T1 sequence (Q07869 whole entry): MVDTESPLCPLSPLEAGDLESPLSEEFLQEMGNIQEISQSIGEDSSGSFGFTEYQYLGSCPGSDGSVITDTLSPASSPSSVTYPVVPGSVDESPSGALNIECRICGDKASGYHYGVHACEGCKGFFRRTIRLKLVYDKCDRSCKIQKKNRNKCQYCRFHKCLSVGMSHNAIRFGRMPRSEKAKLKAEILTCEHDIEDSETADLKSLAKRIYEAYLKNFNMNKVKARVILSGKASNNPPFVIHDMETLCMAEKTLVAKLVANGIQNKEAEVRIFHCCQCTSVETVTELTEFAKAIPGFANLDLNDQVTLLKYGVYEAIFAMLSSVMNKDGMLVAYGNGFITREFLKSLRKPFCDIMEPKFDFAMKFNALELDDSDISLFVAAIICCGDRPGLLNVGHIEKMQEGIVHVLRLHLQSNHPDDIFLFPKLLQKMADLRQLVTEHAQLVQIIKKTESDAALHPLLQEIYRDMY

[2] = target: T2, Peroxisome proliferator-activated receptor delta (Homo sapiens, UniProt Q03181); assay: Agonist activity at human PPARdelta receptor by cell based transactivation assay
T2 sequence (Q03181 whole entry): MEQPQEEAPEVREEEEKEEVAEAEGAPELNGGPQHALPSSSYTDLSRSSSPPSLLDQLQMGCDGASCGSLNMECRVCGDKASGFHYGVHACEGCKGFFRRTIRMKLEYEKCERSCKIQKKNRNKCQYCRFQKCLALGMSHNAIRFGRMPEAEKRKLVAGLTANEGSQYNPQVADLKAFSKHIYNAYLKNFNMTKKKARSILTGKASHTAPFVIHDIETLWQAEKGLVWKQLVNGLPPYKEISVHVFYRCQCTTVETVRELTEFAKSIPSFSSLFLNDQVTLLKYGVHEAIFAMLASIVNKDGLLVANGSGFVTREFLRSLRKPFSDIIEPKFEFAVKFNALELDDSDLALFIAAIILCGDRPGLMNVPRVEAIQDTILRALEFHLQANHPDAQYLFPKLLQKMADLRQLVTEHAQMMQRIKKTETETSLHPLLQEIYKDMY

[3] = target: T3, Peroxisome proliferator-activated receptor gamma (Homo sapiens, UniProt P37231)
T3 sequence (P37231 whole entry): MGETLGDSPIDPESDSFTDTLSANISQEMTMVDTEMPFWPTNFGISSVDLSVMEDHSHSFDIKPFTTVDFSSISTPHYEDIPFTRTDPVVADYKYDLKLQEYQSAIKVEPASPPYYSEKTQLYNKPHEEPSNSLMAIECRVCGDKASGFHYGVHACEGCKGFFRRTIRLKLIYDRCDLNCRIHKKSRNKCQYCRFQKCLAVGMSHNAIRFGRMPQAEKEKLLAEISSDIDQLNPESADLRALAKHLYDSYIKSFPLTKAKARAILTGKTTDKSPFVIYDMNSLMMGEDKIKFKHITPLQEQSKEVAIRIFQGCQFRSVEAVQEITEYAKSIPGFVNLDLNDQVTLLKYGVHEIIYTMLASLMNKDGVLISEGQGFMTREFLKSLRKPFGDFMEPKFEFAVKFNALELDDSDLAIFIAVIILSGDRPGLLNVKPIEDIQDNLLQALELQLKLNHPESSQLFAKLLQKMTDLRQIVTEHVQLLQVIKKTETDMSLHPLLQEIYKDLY
Description: Agonist activity at human PPARgamma receptor by cell based transactivation assay

Homo sapiens [4] = species: Homo sapiens; assay: Selectivity of EC50 for human PPARgamma receptor over EC50 for human PPARalpha receptor
Homo sapiens [5] = species: Homo sapiens; assay: Selectivity of EC50 for human PPARalpha receptor over EC50 for human PPARgamma receptor
Homo sapiens [6] = species: Homo sapiens; assay: Selectivity of EC50 for human PPARalpha receptor over EC50 for human PPARdelta receptor

Row | SMILES | EC50 [1] [nM] | EC50 [2] [nM] | EC50 [3] [nM] | Activity (Homo sapiens [4]) | fold change (FC) (Homo sapiens [5]) | fold change (FC) (Homo sapiens [6]) | fold change (FC) (Homo sapiens [4])
1 | CCCc1cc(C(=O)c2ccc(-c3ccccc3)cc2)ccc1OCCCn1ccc2cc(OC(C)(C)C(=O)O)ccc21 | 1920 | > 10000 | 120 |  |  |  | 15
2 | CCCc1c(OCCCN2CCCc3c(OC(C)(C)C(=O)O)cccc32)ccc2cc(C(=O)c3ccccc3)ccc12 | 120 | > 10000 | 100 |  |  |  | 
3 | CCCc1c(OCCCn2ccc3cc(OC(C)(C)C(=O)O)ccc32)ccc2cc(C(=O)c3ccc(F)cc3)ccc12 | > 10000 | > 10000 | 2120 |  |  |  | 
4 | CCCc1c(OCCCn2ccc3cc(OC(C)(C)C(=O)O)ccc32)ccc2cc(C(=O)c3ccoc3)ccc12 | 130 | > 10000 | 430 |  |  |  | 
5 | CCCc1cc(C(=O)c2ccc(-c3ccccc3)cc2)ccc1OCCCN1CCCc2c(OC(C)(C)C(=O)O)cccc21 | 3990 | > 10000 | 50 |  |  |  | 
6 | CN(CCOc1ccc(CC2SC(=O)NC2=O)cc1)c1ccccn1 (stereo not given) |  |  |  | 80 |  |  | 
7 | CCCc1c(OCCCn2ccc3cc(OC(C)(C)C(=O)O)ccc32)ccc2cc(C(=O)c3ccc(OC)cc3)ccc12 | 130 | > 10000 | 510 |  |  |  | 
8 | CCCc1cc(C(=O)c2ccc3ccccc3c2)ccc1OCCCn1ccc2c(OC(C)(C)C(=O)O)cccc21 | 30 | > 10000 | 2800 |  | > 100 | > 100 | 
9 | CCCc1cc(C(=O)c2ccc3ccccc3c2)ccc1OCCCn1ccc2cc(OC(C)(C)C(=O)O)ccc21 | 30 | > 10000 | 370 |  |  |  | 
10 | CCCc1cc(C(=O)c2ccccc2)ccc1OCCCn1ccc2c(OC(C)(C)C(=O)O)cccc21 | 30 | > 10000 | > 10000 |  |  |  | 
11 | CCCc1cc(C(=O)c2ccc(-c3ccccc3)cc2)ccc1OCCCn1ccc2c(OC(C)(C)C(=O)O)cccc21 | 4070 | > 10000 | 300 |  | > 300 | > 300 | 15
12 | CCCc1cc(C(=O)c2ccccc2)ccc1OCCCn1ccc2cc(OC(C)(C)C(=O)O)ccc21 | 40 | 5270 | 420 |  |  |  | 
13 | CCCc1cc(C(=O)c2ccc(F)cc2)ccc1OCCCn1ccc2cc(OC(C)(C)C(=O)O)ccc21 | 130 | > 10000 | 900 |  |  |  | 

Further lines, with some results ahead:

Row | EC50 [1] [nM] | EC50 [2] [nM] | EC50 [3] [nM] | Activity (Homo sapiens [4]) | fold change (FC) (Homo sapiens [5]) | fold change (FC) (Homo sapiens [6]) | SMILES | fold change (FC) (Homo sapiens [4])
14 | > 10000 | > 10000 | 100 |  |  |  | CCCc1cc(C(=O)c2ccc(-c3ccccc3)cc2)ccc1OCCCN1CCCc2cc(OC(C)(C)C(=O)O)ccc21 | 
15 | 50 | 4450 | 470 |  |  |  | CCCc1cc(C(=O)c2ccc(OC)cc2)ccc1OCCCn1ccc2cc(OC(C)(C)C(=O)O)ccc21 | 
16 | > 10000 | > 10000 | 1070 |  |  |  | CCCc1c(OCCCn2ccc3cc(OC(C)(C)C(=O)O)ccc32)ccc2cc(C(C)=O)ccc12 | 
17 | > 10000 | > 10000 | > 10000 |  |  |  | CCCc1c(OCCCn2ccc3cc(OC(C)(C)C(=O)O)ccc32)ccc2cc(Cc3ccccc3)ccc12 | 
18 | > 10000 | > 10000 | 2070 |  |  |  | CCCc1c(OCCCn2ccc3cc(OC(C)(C)C(=O)O)ccc32)ccc2cc(C(=O)c3ccncc3)ccc12 | 
19 |  | > 10000 |  |  |  |  | CCCc1c(OCCCn2ccc3cc(OC(C)(C)C(=O)O)ccc32)ccc2cc(C(=O)c3ccccc3)ccc12 | 
20 | 240 | > 10000 | 540 |  |  |  | CCCc1c(OCCCN2CCCc3cc(OC(C)(C)C(=O)O)ccc32)ccc2cc(C(=O)c3ccccc3)ccc12 | 
21 | 200 | > 10000 | 3500 |  |  |  | CCCc1c(OCCCn2ccc3cc(OC(C)(C)C(=O)O)ccc32)ccc2c(C(=O)c3ccccc3)cccc12 | 
